From patent US20240391923A1, “METHIONINE ADENOSYLTRANSFERASE 2A INHIBITOR FOR TREATING MTAP DELETION-TYPE CANCER” (SUZHOU GENHOUSE BIO CO., LTD., priority 2022, published 2024)
Read-outs that look alike come from different tables or passages of the source.

Tests used:
[1] = biological target: MAT2A recombinant protein (Homo sapiens, UniProt P31153); assay: MAT2A inhibitory activity (malachite green colorimetric enzyme assay); type: biochemical
Description: MAT2A catalyzes the reaction of L-methionine and ATP to generate S-adenosylmethionine (SAM), inorganic phosphonic acid, and inorganic diphosphonic acid. Malachite green reacts with inorganic phosphonic acid to generate a green product, and the enzyme activity of MAT2A can be indirectly reflected by detecting the content of the inorganic phosphonic acid in a sample.
The test compounds were formulated using DMSO and diluted 1:3 diluted through 10 concentration points to give a final starting concentration in the reaction system of 1000 nM. The test compounds at different concentrations described above were transferred to a 384-well plate. Experimental buffer (50 mM HEPES pH 7.5, 50 mM KCl, 10 mM MgCl2, 10 mM DTT) was prepared. 2×MAT2A recombinant protein was prepared using the buffer and added to a 384-well plate. A mixed solution of 2×L-methionine and ATP was prepared using the buffer, and added to a 384-well plate. The enzymatic reaction was started, and the reaction was carried out at room temperature for 60 min. 20 μL of a colorimetric detection reagent was added to the above system, and incubated at room temperature for 15 min. The absorbance at 630 nm was measured. The inhibition rate of the compound on the enzyme activity was calculated, and the inhibition rate value and the logarithm value of the compound concentration were fitted using non-linear regression (dose response-variable slope) to give the IC50 value of the test compound.

[2] = system: SDMA in HCT116-MTAP-knockout cell line; assay: Cell symmetric dimethylarginine (SDMA) test, In-cell Western, HCT116-MTAP-knockout; type: cell-based; settings: Homo sapiens, 96 h
[3] = system: SDMA in human colon cancer cell line HCT116; assay: Cell symmetric dimethylarginine (SDMA) test, In-cell Western, HCT116 (MTAP wild-type); type: cell-based; settings: Homo sapiens, HCT-116, 96 h
Description: MAT2A catalyzes the reaction of L-methionine and ATP to generate SAM, inorganic phosphonic acid, and inorganic diphosphonic acid. SAM is an important methyl donor, and is a substrate of arginine methyltransferase 5 (PRMT5). PRMT5 catalyzes SDMA modification of multiple proteins within a cell. The intracellular SDMA modification level was detected by ICW (In-cell Western), and the inhibition of the test compound on the enzymatic activity of intracellular MAT2A was indirectly reflected.
In the present application, the human colon cancer cell line HCT116 and the corresponding HCT116-MTAP-knockout cell line were seeded into a 96-well cell culture plate at an appropriate cell density. After 24 h, the cells were treated using the test compounds diluted 1:4 fold at the highest concentration of 6 μM for 6 gradients, and a DMSO treatment group was set up separately. The cells were cultured in a 37° C./5% CO2 incubator for 4 days. To test the inhibitory activity of the test compounds against tumor cell SDMA, the medium was discarded, and the plate was washed 3 times with PBST. 4% paraformaldehyde was then used at room temperature for fixation for 20 min. The fixation solution was discarded, the plate was washed 3 times with PBST, and a special blocking solution was added to each well for blocking at room temperature for 2 h. The blocking solution was discarded. After the plate was washed 3 times with PBST, the plate was incubated with SDMA antibody at 4° C. overnight. The next day, the plate was washed 3 times with PBST. The secondary antibody and DRAQ5 were diluted to an appropriate concentration with the blocking solution, and incubated at room temperature for 2 h; the plate was washed 3 times with PBST, and the fluorescence signals at 700 nm and 800 nm were detected using a Li—COR Odyssey two-color near-infrared laser imager.
The data was then processed. After the corresponding background value was subtracted from each well, statistical analysis was performed on the 800 nm/700 nm ratio for each well, a sigmoidal dose-inhibition curve was plotted using a non-linear regression model, and IC50 values were fitted and calculated. Inhibition Rate (%)=(1−SDMA dose/SDMA DMSO control)*100. SDMA dose is the value of the drug treatment group, and SDMA DMSO control is the value of the DMSO control group.

[4] = IC50 score class, read-out: MAT2A Inhibition (score)
[5] = IC50 score class, read-out: Cell 96 h SDMA Inhibition (HCT116-MTAP−/−) (score)
[6] = read-out: Cell 96 h SDMA Inhibition (HCT116-MTAP−/−)
[7] = IC50 score class, read-out: Cell 96 h SDMA Inhibition (HCT116-MTAP+/+) (score)
[8] = read-out: Cell 96 h SDMA inhibition (HCT116-MTAP+/+)

MAT2A recombinant protein, sequence (P31153 whole entry): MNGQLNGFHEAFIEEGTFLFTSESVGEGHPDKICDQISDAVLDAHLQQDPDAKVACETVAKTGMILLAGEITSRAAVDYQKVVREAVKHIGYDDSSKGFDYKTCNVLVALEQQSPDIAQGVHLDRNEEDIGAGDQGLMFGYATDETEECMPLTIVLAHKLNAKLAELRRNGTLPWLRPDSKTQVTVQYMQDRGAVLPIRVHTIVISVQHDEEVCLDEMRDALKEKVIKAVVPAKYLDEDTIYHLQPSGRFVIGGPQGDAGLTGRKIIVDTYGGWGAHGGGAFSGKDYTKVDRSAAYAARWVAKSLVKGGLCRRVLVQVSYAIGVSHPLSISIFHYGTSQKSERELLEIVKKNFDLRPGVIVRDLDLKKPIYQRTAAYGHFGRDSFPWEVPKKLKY

Row | SMILES | IC50 [1, 4] | IC50 ([1]; read-out: MAT2A Inhibition) | IC50 [2, 5] | IC50 [2, 6] | IC50 [3, 7] | IC50 [3, 8]
1 | COc1ccc(-n2cc3c(n2)c(=O)n(-c2ccccc2)c2nc(C(F)(F)F)ccc32)cn1 [Compound B231] | < 100 nM | 39.9 nM |  |  |  | 
2 | CCn1nc2c(=O)n(-c3cccnc3)c3cc(Cl)ccc3c2c1C(F)F [Compound B25] | < 100 nM | 92.8 nM |  |  |  | 
3 | Cn1cnc2c(=O)n(-c3cccc4cccnc34)c3cc(Cl)c(C#N)cc3c21 [Compound B379] | > 1000 nM | > 1000 nM |  |  |  | 
4 | Cn1cc2c(n1)c(=O)n(-c1cccc(NS(C)(=O)=O)c1)c1nc(C(F)(F)F)ccc21 [Compound B214] | < 100 nM | 14.9 nM |  |  |  | 
5 | O=c1c2nn(C3CCOCC3)cc2c2ccc(C(F)(F)F)nc2n1-c1cccnc1 [Compound B210] | 100 to 1000 nM | 603 nM |  |  |  | 
6 | Cn1cc2c(n1)c(=O)n(-c1cccc3[nH]nc(Br)c13)c1cc(Cl)c(F)cc21 [Compound B413] | < 100 nM | 7.4 nM | < 200 nM | 9.1 nM | > 3000 nM | > 10000 nM
7 | O=c1c2nccnc2c2ccc(Cl)cc2n1-c1cccnc1 [Compound B50] | 100 to 1000 nM | 488 nM |  |  |  | 
8 | O=c1c2nn(C(F)F)cc2c2cc(F)c(Cl)cc2n1-c1cccnc1C1CC1 (single isomer, unassigned) [Compound B399] |  |  |  |  | > 3000 nM | > 10000 nM
9 | COc1ccc(Cn2cc3c(n2)c(=O)n(-c2cccc4[nH]ncc24)c2cc(Cl)c(C#N)cc32)cc1 [Compound B286] | 100 to 1000 nM | 188 nM |  |  |  | 
10 | Cn1cc2c(n1)c(=O)n(-c1cccc3[nH]nc(Cl)c13)c1cc(Cl)c(F)cc21 [Compound B412] | < 100 nM | 6.4 nM | < 200 nM | 5.8 nM | > 3000 nM | > 10000 nM
11 | Cn1ccc(Cn2ncc3c4ccc(Cl)cc4n(-c4cccnc4)c(=O)c32)n1 [Compound B168] | < 100 nM | 99.2 nM |  |  |  | 
12 | Cn1cc2c(n1)c(=O)n([C@H]1CC[C@H](O)CC1)c1cc(Cl)ccc21 [Compound B109] | 100 to 1000 nM | 483 nM |  |  |  | 
13 | Cn1cc2c(n1)c(=O)n(-c1ccc3ncoc3c1)c1nc(C(F)(F)F)ccc21 [Compound B209] | 100 to 1000 nM | 122 nM |  |  |  | 
14 | Cn1cc2c(n1)c(=O)n(-c1cccnc1)c1cc(Cl)cc(F)c21 [Compound B172] | < 100 nM | 68.1 nM | 200 to 1000 nM | 771 nM | 1000 to 3000 nM | 2210 nM
15 | CCn1cc2c(n1)c(=O)n(-c1cccnc1)c1cc(OC(F)(F)F)ccc21 [Compound B19] | 100 to 1000 nM | 125 nM |  |  |  | 
16 | COc1cccc(-n2c(=O)c3nn(C)cc3c3ccc(C(F)(F)F)nc32)c1 [Compound B184] | 100 to 1000 nM | 174 nM |  |  |  | 
17 | Cc1nnc2c(=O)n(-c3cccnc3)c3cc(Cl)ccc3n12 [Compound B23] | 100 to 1000 nM | 908 nM |  |  |  | 
18 | Cn1cc2c(n1)c(=O)n([C@@H]1CCCOC1)c1cc(Cl)ccc21 [Compound B230] | 100 to 1000 nM | 237 nM |  |  |  | 
19 | O=c1c2c(cnn2CC(F)F)c2ccc(Cl)cc2n1-c1cccnc1 [Compound B170] | 100 to 1000 nM | 220 nM |  |  |  | 
20 | Cn1cc2c(n1)c(=O)n(-c1cccc(C(F)F)c1)c1nc(C(F)(F)F)ccc21 [Compound B194] | < 100 nM | 43.7 nM |  |  |  | 
21 | Cn1cnc2c(=O)n(-c3cccc4ccccc34)c3cc(Cl)c(C#N)cc3c21 [Compound B378] | > 1000 nM | > 1000 nM |  |  |  | 
22 | CCn1nc2c(=O)n(-c3cccnc3)c3cc(Cl)ccc3c2c1C(F)(F)F [Compound B24] | 100 to 1000 nM | 115 nM |  |  |  | 
23 | Cn1cc2c(n1)c(=O)n(-c1cccc3[nH]ncc13)c1nc(C(F)(F)F)c(C#N)cc21 [Compound B281] | < 100 nM | 30 nM | < 200 nM | 25 nM | > 3000 nM | > 10000 nM
24 | Cn1cc2c(n1)c(=O)n(Cc1cn[nH]c1)c1nc(C(F)(F)F)ccc21 [Compound B197] | < 100 nM | 90.4 nM |  |  |  | 
25 | Cn1cc2c(n1)c(=O)n(-c1cccnc1)c1nc(Cl)ccc21 [Compound B244] | < 100 nM | 102 nM |  |  |  | 
26 | Cn1nc2c(=O)n(-c3cccnc3)c3cc(Cl)ccc3c2c1C(F)(F)F [Compound B26] | 100 to 1000 nM | 349 nM |  |  |  | 
27 | Cn1cc2c(n1)c(=O)n(-c1c(F)cccc1F)c1nc(C(F)(F)F)ccc21 [Compound B195] | < 100 nM | 20 nM |  |  |  | 
28 | N#Cc1cc2c3cn(C(F)F)nc3c(=O)n(-c3cccc4[nH]ncc34)c2cc1Cl [Compound B283] | < 100 nM | 88 nM |  |  |  | 
29 | O=c1c2nn(C(F)F)cc2c2cc(F)c(Cl)cc2n1-c1cccnc1C(F)(F)F [Compound B339] |  |  | 200 to 1000 nM | 203 nM | > 3000 nM | > 10000 nM

Further lines, results first:

Row | IC50 [1, 4] | IC50 ([1]; read-out: MAT2A Inhibition) | IC50 [2, 5] | IC50 [2, 6] | IC50 [3, 7] | IC50 [3, 8] | SMILES
30 | < 100 nM | 39 nM | < 200 nM | 9 nM | > 3000 nM | > 10000 nM | Cn1cc2c(n1)c(=O)n(-c1cccc3[nH]nc(Br)c13)c1cc(Cl)ccc21 [Compound B332]
31 |  |  | 200 to 1000 nM | 813 nM | 1000 to 3000 nM | 2030 nM | Cn1cc2c(n1)c(=O)n(-c1cccnc1)c1cc(OC(F)(F)F)ccc21 [Compound B78]
32 | < 100 nM | 71.8 nM | 200 to 1000 nM | 228 nM | > 3000 nM | 17400 nM | Cn1cc2c(n1)c(=O)n(-c1cccc(O)c1)c1cc(Cl)ccc21 [Compound B152]
33 | 100 to 1000 nM | 178 nM |  |  |  |  | Cn1cc2c(n1)c(=O)n(-c1ccc3ncoc3c1)c1cc(Cl)ccc21 [Compound B208]
34 | < 100 nM | 41.9 nM |  |  |  |  | Cn1cc2c(n1)c(=O)n(Cc1ccn[nH]1)c1cc(Cl)ccc21 [Compound B117]
35 | > 1000 nM | > 1000 nM |  |  |  |  | CCn1cc2c(n1)c(=O)n(-c1ccncc1)c1cc(Cl)ccc21 [Compound B10]
36 | < 100 nM | 37.4 nM | 200 to 1000 nM | 775 nM | > 3000 nM | 6800 nM | Cn1cc2c(n1)c(=O)n(-c1cccnc1)c1cc(Cl)c(F)cc21 [Compound B139]
37 | 100 to 1000 nM | 284 nM |  |  |  |  | COc1ccc(-n2c(=O)c3nn(C)cc3c3ccc(C(F)(F)F)nc32)cc1 [Compound B187]
38 | 100 to 1000 nM | 379 nM |  |  |  |  | COc1ccc(-n2c(=O)c3nn(C)cc3c3ccc(Cl)cc32)cc1 [Compound B185]
39 | 100 to 1000 nM | 133 nM |  |  |  |  | Cn1cc2c(n1)c(=O)n(-c1cccc(OC(F)F)c1)c1nc(C(F)(F)F)ccc21 [Compound B190]
40 | > 1000 nM | > 1000 nM |  |  |  |  | CCn1cc2c(n1)c(=O)n(-c1cccc(C(F)(F)F)c1)c1cc(Cl)ccc21 [Compound B15]
41 | < 100 nM | 97.4 nM |  |  |  |  | Cn1cc2c(n1)c(=O)n(-c1cccc(O)c1)c1cc(OC(F)(F)F)ccc21 [Compound B169]
42 | < 100 nM | 71.1 nM |  |  |  |  | Cn1cc2c(n1)c(=O)n(-c1ccn3ccnc3c1)c1cc(Cl)ccc21 [Compound B205]
43 | 100 to 1000 nM | 191 nM |  |  |  |  | Cn1cc2c(n1)c(=O)n(-c1ccc(OC(F)F)cc1)c1cc(Cl)ccc21 [Compound B186]
44 | > 1000 nM | > 1000 nM |  |  |  |  | CCn1cc2c(n1)c(=O)n(-c1ccc(OC)cc1)c1cc(Cl)ccc21 [Compound B11]
